Values quoted from earlier work as cited in patent publication US20200390702A1, “LIPOSOMAL TAXANES FOR TREATMENT OF SCLC” (Plus Therapeutics, Inc., priority 2017, published 2020).
Where two headings read alike, the source gives them in different places.

System: SCLC
Details: intravenous

## CC[C@@]1(O)C(=O)OCc2c1cc1n(c2=O)Cc2cc3c(CN(C)C)c(O)ccc3nc2-1 [Topotecan]
chemotherapy-refractory relapsed cases
  response rate: 4.0%
chemotherapy-sensitive relapsed cases
  response rate: 20.4%
